From patent US20150132404A1, “Equine feed for the reduction of ulcers in performance horses” (priority 2013, published 2015) come the findings set out here.

This test concerns horses. Put plainly: Observation of horses fed the feed supplement mixture (testing of the product). The class given is in vivo, horse. From the text: A dry horse feed supplement for the prevention and treatment of ulcers in horses, especially those involved in performance activities, provides a feed supplement mixture comprising a quantity of forage or filler product; a quantity of grain product, a quantity of protein product, a quantity of roughage product, essential vitamins and trace minerals, a yeast product, fat, molasses, a measured quantity of thiamine (Vitamin B1) and a measured quantity of sodium bicarbonate. The feed supplement mixture is fed to a horse based upon the total weight of the horse, in an amount between 0.50-1.50% of the body weight, depending upon the level of work and activity stress of the horse.
The feed composition ingredients, delivered in the parameters set above with regard to content quantity by percentage includes the ingredients list, in order of most ingredient quantity to least ingredients quantity, provides the feed containing no less than 14% crude protein, 6.5% crude fat, a no more than 22% crude fiber, no less than 0.6% and no more than 1% calcium, no less than 0.3% phosphorus, as well as quantities of zinc, copper, selenium, Vitamin A and Vitamin E. There are special blends suited for older performance horses and other blends for various younger performance horses. […]

On to `O=C([O-])O.[Na+]` [sodium bicarbonate], for which, under “sodium bicarbonate at the recommended levels in the feed”, the “pH level in the digestive tract” value was “acts as a buffer and maintains an optimal ph level in the digestive tract”.
With `Cc1ncc(C[n+]2csc(CCO)c2C)c(N)n1` [thiamine], the “effect on demeanor / stress level of the horse” value (fed in the feed supplement mixture at 0.5-1.5% of body weight) was “calming effect on horses”.
